Experiments:
[1] = biological target: T1, Recombinant STAT3 protein (STAT3(G127-I722)) (Homo sapiens, UniProt P40763); test: STAT3 Fluorescence Polarization (FP) Assay; assay type: binding; settings: STAT3(G127-I722) 25 nM, probe 5-FAM-GpYLPQTV-NH2 2 nM, 45-minute incubation
T1 construct: Recombinant STAT3 protein (STAT3(G127-I722))
In short: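 STAT3(G127-I722), 25 nM, was mixed with 2 nM 5-FAM-GpYLPQTV-NH2 probe in HEPES pH 7.4 buffer with 1% DMSO and serially diluted compound. FP (mP) was read after 45 min at room temperature. IC50 came from nonlinear regression.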

[2] = biological target: T2, Recombinant STAT6 protein (STAT6(W123-T658)) (Homo sapiens, UniProt P42226); test: STAT6 Fluorescence Polarization (FP) Assay; assay type: binding; settings: STAT6(W123-T658) 250 nM, probe 5-FAM-ApYKPFQDLI-NH2 2 nM, 45-minute incubation
T2 construct: Recombinant STAT6 protein (STAT6(W123-T658))
T2 sequence (P42226 123-658): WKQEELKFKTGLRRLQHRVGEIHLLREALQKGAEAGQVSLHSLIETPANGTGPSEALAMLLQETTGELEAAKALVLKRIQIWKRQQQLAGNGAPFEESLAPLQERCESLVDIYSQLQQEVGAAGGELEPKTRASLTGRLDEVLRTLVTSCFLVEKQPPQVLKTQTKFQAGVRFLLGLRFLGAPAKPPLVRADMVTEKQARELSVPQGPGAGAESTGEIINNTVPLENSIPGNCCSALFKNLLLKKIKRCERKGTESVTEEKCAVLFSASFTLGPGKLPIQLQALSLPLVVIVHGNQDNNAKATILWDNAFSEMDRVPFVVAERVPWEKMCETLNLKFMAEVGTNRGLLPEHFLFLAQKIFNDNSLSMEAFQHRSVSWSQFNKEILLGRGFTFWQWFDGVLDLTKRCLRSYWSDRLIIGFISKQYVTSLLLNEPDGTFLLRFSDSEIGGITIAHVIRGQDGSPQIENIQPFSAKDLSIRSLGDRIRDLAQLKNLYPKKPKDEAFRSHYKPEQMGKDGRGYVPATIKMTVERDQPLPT
In short: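 Displacement of a fluorescent phosphotyrosine peptide (5-FAM-ApYKPFQDLI-NH2, 2 nM) from STAT6(W123-T658) (250 nM), 1% DMSO, pH 7.4 HEPES buffer. After 45 min at room temperature, polarization (mP) was plotted versus log compound concentration and fitted by nonlinear regression to give IC50.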

T1 sequence (P40763 127-722): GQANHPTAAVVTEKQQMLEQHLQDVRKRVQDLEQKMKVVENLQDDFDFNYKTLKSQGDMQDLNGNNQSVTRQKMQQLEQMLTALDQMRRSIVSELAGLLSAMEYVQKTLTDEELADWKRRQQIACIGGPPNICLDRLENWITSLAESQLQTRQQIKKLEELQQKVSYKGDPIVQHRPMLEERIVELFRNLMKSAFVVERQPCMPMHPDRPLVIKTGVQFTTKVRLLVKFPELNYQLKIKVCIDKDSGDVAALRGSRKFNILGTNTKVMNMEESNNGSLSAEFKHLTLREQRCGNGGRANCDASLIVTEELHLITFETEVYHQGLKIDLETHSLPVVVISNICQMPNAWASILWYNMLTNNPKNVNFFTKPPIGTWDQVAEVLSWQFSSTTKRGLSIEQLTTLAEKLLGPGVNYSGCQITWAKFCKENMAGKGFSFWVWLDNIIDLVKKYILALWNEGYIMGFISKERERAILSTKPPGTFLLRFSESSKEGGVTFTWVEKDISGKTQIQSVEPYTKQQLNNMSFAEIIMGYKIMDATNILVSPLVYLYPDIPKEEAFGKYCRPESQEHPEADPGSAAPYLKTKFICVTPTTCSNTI

SMILES	IC50 [1] [µM]	IC50 [2] [µM]
Cc1ccc2onc(C(=O)N3CC[C@H]4CC[C@@H](C(=O)N5C[C@@H](C#N)[C@H](c6ccccc6)C5)N4C(=O)[C@@H](NC(=O)c4ccc5ccc(C(F)(F)P(=O)(O)O)cc5c4)C3)c2c1 (single isomer, unassigned) [Compound 375]	1 to 10	≤ 0.3
CC(=O)N1CC[C@H]2CC[C@@H](C(=O)N(C)c3ccc(Cl)cc3)N2C(=O)[C@@H](NC(=O)c2cc3cc(C(F)(F)P(=O)(O)O)ccc3s2)C1 [Compound 187, ((2-(((5S,8S,10aR)-3-acetyl-8-((4-chlorophenyl)(methyl)carbamoyl)-6-oxodecahydropyrrolo[1,2-a][1,5]diazocin-5-yl)carbamoyl)benzo[b]thiophen-5-yl)difluoromethyl)phosphonic acid]	1 to 10	0.3 to 3
CC(=O)N1CC[C@H]2CC[C@@H](C(=O)N(c3ccccc3)c3ccccc3)N2C(=O)[C@@H](NC(=O)c2cc3cc(C(F)(F)P(=O)(O)O)ccc3[nH]2)C1 [Compound 55, ((2-(((5S,8S,10aR)-3-acetyl-8-(diphenylcarbamoyl)-6-oxodecahydropyrrolo[1,2-a][1,5]diazocin-5-yl)carbamoyl)-1H-indol-5-yl)difluoromethyl)phosphonic acid]	1 to 10	0.3 to 3
CC(=O)N1CC[C@H]2CC[C@@H](C(=O)N(C)c3ccc4nnccc4c3)N2C(=O)[C@@H](NC(=O)c2ccc3cnc(C(F)(F)P(=O)(O)O)cc3c2)C1 [Compound 119, ((6-(((5S,8S,10aR)-3-acetyl-8-(cinnolin-6-yl(methyl)carbamoyl)-6-oxodecahydropyrrolo[1,2-a][1,5]diazocin-5-yl)carbamoyl)isoquinolin-3-yl)difluoromethyl)phosphonic acid]	> 10	0.3 to 3
Cc1ccc2onc(C(=O)N3CC[C@H]4CC[C@@H](C(=O)N5CCOC[C@@H]5c5ccccc5)N4C(=O)[C@@H](NC(=O)c4ccc5ccc(C(F)P(=O)(O)O)cc5c4)C3)c2c1 (stereo partly drawn) [Compound 370, (fluoro(7-(((5S,8S, 10aR)-3-(5-methylbenzo[d]isoxazole-3-carbonyl)-6-oxo-((S)-3-phenylmorpholine-4-carbonyl)decahydro-pyrrolo[1,2-a] [1,5]diazocin-5-yl)carbamoyl)naphthalen-2-yl)methyl)phosphonic acid]	> 10	≤ 0.3
Cc1ccc2onc(C(=O)N3CC[C@H]4CC[C@@H](C(=O)N5C[C@@H](C)O[C@@H](C)C5)N4C(=O)[C@@H](NC(=O)c4ccc5ccc(C(F)P(=O)(O)O)cc5c4)C3)c2c1 (stereo partly drawn) [Compound 397, ((7-(((5S,8S,10aR)-8-((2S,6R)-2,6-dimethylmorpholine-4-carbonyl)-3-(5-methylbenzo[d]isoxazole-3-carbonyl)-6-oxodecahydropyrrolo [1,2-a][1,5]diazocin-5-yl)carbamoyl)naphthalen-2-yl)fluoromethyl)phosphonic acid]	> 10	≤ 0.3
CC(=O)N1CC[C@H]2CC[C@@H](C(=O)N(Cc3ccccc3)c3ccccc3)N2C(=O)[C@@H](NC(=O)c2cc3cc(C(F)(F)P(=O)(O)O)ccc3[nH]2)C1 [Compound 56, ((2-(((5S,8S,10aR)-3-acetyl-8-(benzyl(phenyl)carbamoyl)-6-oxodecahydropyrrolo[1,2-a][1,5]diazocin-5-yl)carbamoyl)-1H-indol-5-yl)difluoromethyl)phosphonic acid]	1 to 10	0.3 to 3
Cc1ccc2onc(C(=O)N3CC[C@H]4CC[C@@H](C(=O)N5C[C@@H](c6cc[nH]c(=O)c6)CC56CC6)N4C(=O)[C@@H](NC(=O)c4ccc5ccc(C(F)(F)P(=O)(O)O)cc5c4)C3)c2c1 [Compound 385, (difluoro(7-(((5S,8S, 10aR)-3-(5-methyl-benzo[d]isoxazole-3-carbonyl)-6-oxo-8-((R)-6-(2-oxo-1,2-dihydro-pyridin-4-yl)-4-azaspiro [2.4]heptane-4-carbonyl)decahydro-pyrrolo[1,2-a][1,5]diazocin-5-yl)carbamoyl)naphthalen-2-yl)methyl) phosphonic acid]	1 to 10	≤ 0.3
CC(=O)N1CC[C@H]2CC[C@@H](C(=O)N3CCC(c4cccnc4)C3)N2C(=O)[C@@H](NC(=O)c2ccc3ccc(C(F)P(=O)(O)O)cc3c2)C1 (stereo partly drawn) [Compound 355, ((7-(((5S,8S,10a R)-3-acetyl-6-oxo-8-(3-(pyridin-3-yl)pyrrolidine-1-carbonyl)decahydro-pyrrolo [1,2-a][1,5]diazocin-5-yl)carbamoyl)naphthalen-2-yl)fluoromethyl) phosphonic acid]	1 to 10	0.3 to 3

Continued, values first:

IC50 [1] [µM]	IC50 [2] [µM]	SMILES
0.1 to 1	0.3 to 3	CC(=O)N1CC[C@H]2CC[C@@H](C(=O)Nc3ccn(-c4ccccc4)c(=O)c3)N2C(=O)[C@@H](NC(=O)c2cc3cc(C(F)(F)P(=O)(O)O)ccc3[nH]2)C1 [Compound 140, ((2-(((5S,8S,10aR)-3-acetyl-6-oxo-8-((2-oxo-1-phenyl-1,2-dihydropyridin-4-yl)carbamoyl)decahydropyrrolo[1,2-a][1,5]diazocin-5-yl)carbamoyl)-1H-indol-5-yl)difluoromethyl)phosphonic acid]
≤ 0.1	3 to 30	O=C(N[C@H]1CCN(C(c2ccccc2)c2ccccc2)C[C@H]2CC[C@@H](C(=O)N3CC(c4cccnc4)C3)N2C1=O)c1cc2cc(C(F)(F)P(=O)(O)O)ccc2s1 [Compound 210, ((2-(((5S,8S,10aR)-2-benzhydryl-6-oxo-8-(3-(pyridin-3-yl)azetidine-1-carbonyl)decahydropyrrolo[1,2-a][1,4]diazocin-5-yl)carbamoyl)benzo[b]thiophen-5-yl)difluoromethyl)phosphonic acid]
≤ 0.1	0.3 to 3	CC(=O)N1CC[C@H]2CC[C@@H](C(=O)N3CC(c4cccnc4)C3)N2C(=O)[C@@H](NC(=O)c2cc3cc(C(F)(F)P(=O)(O)O)ccc3s2)C1 [Compound 122, ((2-(((5S,8S,10aR)-3-acetyl-6-oxo-8-(3-(pyridin-3-yl)azetidine-1-carbonyl)decahydropyrrolo[1,2-a][1,5]diazocin-5-yl)carbamoyl)benzo[b]thiophen-5-yl)difluoromethyl)phosphonic acid]
0.1 to 1	0.3 to 3	CC(=O)N1CC[C@H]2CC[C@@H](C(=O)Nc3ccc(-c4ccccc4)cc3)N2C(=O)[C@@H](NC(=O)c2cc3c(F)c(C(F)(F)P(=O)(O)O)ccc3s2)C1 [Compound 48, ((2-(((5S,8S,10aR)-8-([1,1′-biphenyl]-4-ylcarbamoyl)-3-acetyl-6-oxodecahydropyrrolo[1,2-a][1,5]diazocin-5-yl)carbamoyl)-4-fluorobeno[b]thiophen-5-yl)difluoromethyl)phosphonic acid]
0.1 to 1	0.3 to 3	CC(=O)N1CC[C@H]2CC[C@@H](C(=O)N3C[C@@H]4[C@H](C3)[C@H]3CS(=O)(=O)C[C@@H]43)N2C(=O)[C@@H](NC(=O)c2cc3cc(C(F)(F)P(=O)(O)O)ccc3s2)C1 [Compound 79, ((2-(((5S,8S,10aR)-3-acetyl-8-((3aR,3bS,6aR,6bS)-2,2-dioxidooctahydro-1H-thieno[3′,4′:3,4]cyclobuta[1,2-c]pyrrole-5-carbonyl)-6-oxodecahydropyrrolo[1,2-a][1,5]diazocin-5-yl)carbamoyl)benzo[b]thiophen-5-yl)difluoromethyl)phosphonic acid]

Source: patent US20250179103A1, “6-OXODECAHYDROPYRROLO[1,2-A][1,5]DIAZOCINE AND 6-OXODECAHYDRO-4H-PYRROLO[2,1-D][1,5]THIAZOCINE DERIVATIVES AS STAT3 AND STAT6 MODULATORS FOR THE TREATMENT OF CANCER AND INFLAMMATORY CONDITIONS” (Recludix Pharma, Inc., priority 2022, published 2025)
